Data: patent publication US20240116882A1, “NOVEL BENZOTRIAZOLE DERIVATIVE HAVING INHIBITORY ACTIVITY AGAINST ECTONUCLEOTIDE PYROPHOSPHATASE-PHOSPHODIESTERASE, AND USE THEREOF” (TXINNO BIOSCIENCE INC., priority 2021, published 2024)
Counter-ions that a name gives are not always drawn.

Molecular target: T1, human recombinant ENPP1 enzymes (Homo sapiens, UniProt P22413)
T1 construct: purchased R & D systems
T1 sequence (P22413 1-925): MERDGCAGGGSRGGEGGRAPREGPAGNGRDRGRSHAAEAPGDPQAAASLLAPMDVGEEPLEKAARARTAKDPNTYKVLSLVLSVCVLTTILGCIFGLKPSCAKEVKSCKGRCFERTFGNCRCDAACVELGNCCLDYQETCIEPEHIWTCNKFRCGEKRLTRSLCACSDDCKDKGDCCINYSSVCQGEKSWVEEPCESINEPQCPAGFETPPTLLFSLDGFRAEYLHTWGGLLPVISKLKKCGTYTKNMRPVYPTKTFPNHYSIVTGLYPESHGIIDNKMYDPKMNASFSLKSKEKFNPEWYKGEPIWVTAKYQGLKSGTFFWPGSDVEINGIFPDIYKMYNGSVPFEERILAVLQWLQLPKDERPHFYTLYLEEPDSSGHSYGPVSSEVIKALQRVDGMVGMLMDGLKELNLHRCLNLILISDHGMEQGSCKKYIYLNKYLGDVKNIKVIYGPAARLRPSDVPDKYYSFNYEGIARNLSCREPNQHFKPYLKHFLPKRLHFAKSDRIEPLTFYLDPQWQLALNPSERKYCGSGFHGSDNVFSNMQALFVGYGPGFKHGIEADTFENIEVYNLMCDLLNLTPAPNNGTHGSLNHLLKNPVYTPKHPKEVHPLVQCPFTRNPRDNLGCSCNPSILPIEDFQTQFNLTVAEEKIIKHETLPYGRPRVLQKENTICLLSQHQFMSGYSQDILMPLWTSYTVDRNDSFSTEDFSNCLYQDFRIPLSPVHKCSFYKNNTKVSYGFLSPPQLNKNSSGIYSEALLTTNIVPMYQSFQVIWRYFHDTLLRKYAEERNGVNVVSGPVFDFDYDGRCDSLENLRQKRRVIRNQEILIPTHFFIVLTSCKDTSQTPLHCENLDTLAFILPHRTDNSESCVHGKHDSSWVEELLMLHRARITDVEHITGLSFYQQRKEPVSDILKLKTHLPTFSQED
Assay: ENPP1 Enzyme Assay with cGAMP Substrate (AMP-Glo)
Assay type: biochemical
Details: human recombinant ENPP1, cGAMP 5 μM, 37° C. 90 minutes, AMP-Glo luminescence; read-out: Enzymatic activity (IC50)
Experimental: ENPP1 hydrolyzes nucleotides or nucleotide derivatives to produce nucleoside-5′-monophosphate and pyrophosphate. In addition, ENPP1 hydrolyzes 2′,3′-cGAMP to produce 5′-adenosine monophosphate (AMP) and 5′-guanosine monophosphate (GMP). AMP produced from the reaction is measured using the AMP-Glo® kit (Promega). The AMP-Glo® kit contains two reagents. The first reagent terminates the AMP-producing enzymatic reaction, removes ATP and converts the produced AMP into ADP. The second reagent converts ADP into ATP which is used to generate luminescence in the luciferase reaction. The amount of luminescence measured is proportional to the amount of AMP produced by ENPP1.
The final reaction solution contains 50 mM Tris (pH 8.5) buffer, 250 mM NaCl, 0.5 mM CaCl2), 1 μM ZnCl2, 5% glycerol and 1% DMSO. Serially diluted ENPP1 inhibitors (typically in the range of 10 μM to 0.5 nM) were pre-stored with human recombinant ENPP1 enzymes (R & D systems) at 3 ng/reaction and room temperature (RT) for 5 to 10 minutes. The reaction was initiated by addition of cGAMP (at a final concentration of 5 μM) and reacted at 37° C. for 90 minutes. At the end of the reaction, 10 μl of the AMP-Glo first reagent was added to stop the reaction and the result was stored at room temperature for 1 hour. After storage, 20 μl of an AMP detection solution (a mixture of AMP-Glo II reagent and Kinase-Glo at a ratio of 1:100) was added and stored at room temperature for 1 hour. Luminescence signals were measured using a Victor® plate reader (Perkin Elmer). The maximal activity control (containing enzymes and substrates in the presence of 1% DMSO; MAX) and the minimal activity control (containing substrates and 1% DMSO; MIN) were evaluated simultaneously. In each experiment, serially diluted reference ENPP1 inhibitors were tested as well. IC50, indicating % residual activity versus compound concentration was determined by fitting inhibition curves using the 3-parameter analysis of GraphPad Prism® software. Serially diluted samples of one compound were tested two or more times and an average IC50 of each compound was calculated.

CC(F)(F)c1ccc2c(c1)nnn2-c1ccc(CN)cc1F [Example 22]
IC50: > 10 µM

COc1ccc2c(c1)nnn2C1CCC(CNS(N)(=O)=O)CC1 (centres unmarked) [Example 43, N-((4-(5-methoxy-1H-benzo[d][1,2,3]triazol-1-yl)cyclohexyl)methyl)sulfamide]
IC50: < 1 µM

COc1ccc2c(c1)nnn2-c1cccc(CCN)c1 [Example 11, 2-(3-(5-methoxy-1H-benzo[d][1,2,3]triazol-1-yl)phenyl)ethan-1-amine Hydrochloride]
IC50: > 10 µM

COc1ccc2c(c1)nnn2-c1cc(C)sc1CN [Example 31, 3-(5-methoxy-1H-benzo[d][1,2,3]triazol-1-yl)-5-methylthiophen-2-yl)methanamine Hydrochloride]
IC50: > 10 µM

NS(=O)(=O)NCc1ccc(-n2nnc3cc(C(F)(F)F)ccc32)cc1 [Example 84]
IC50: > 10 µM

CCOP(=O)(NCc1ccc(-n2nnc3cc(OC)ccc32)c(F)c1)OCC [Example 117, diethyl-(3-fluoro-4-(5-methoxy-1H-benzo[d][1,2,3]triazol-1-yl)benzyl)phosphoamidite]
IC50: > 10 µM

NS(=O)(=O)NCc1ccc(-n2nnc3cc(O)ccc32)c(F)c1 [Example 74, N-(3-fluoro-4-(5-hydroxy-1H-benzo[d][1,2,3]triazol-1-yl)benzyl)sulfamide]
IC50: < 1 µM

CCOc1ccc2c(c1)nnn2-c1ccc(CNS(N)(=O)=O)cc1F [Example 76, N-(4-(5-ethoxy-1H-benzo[d][1,2,3]triazol-1-yl)-3-fluorobenzyl)sulfamide]
IC50: > 10 µM

CCOc1ccc2c(c1)nnn2-c1ccc(CN)cc1F [Example 19]
IC50: > 10 µM

NS(=O)(=O)NCc1ccc(-n2nnc3cc(OC(F)(F)F)ccc32)c(F)c1 [Example 90]
IC50: > 10 µM

COc1ccc2c(c1)nnn2-c1ccc(CNS(N)(=O)=O)nc1 [Example 78]
IC50: < 1 µM

COc1cc2nnn(-c3ccc4c(c3)CNC4)c2cc1OC [Example 29, 1-(isoindolin-5-yl)-5,6-dimethoxy-1H-benzo[d][1,2,3]triazole Hydrochloride]
IC50: > 10 µM

COc1ccc2nn(Cc3ccc(CNS(N)(=O)=O)cc3)nc2c1 [Example 110, N-(4-((5-methoxy-2H-benzo[d][1,2,3]triazole-2-yl)benzyl)sulfamide Hydrochloride]
IC50: 1 to 10 µM

COc1cccc2nnn(-c3ccc(CN)cc3)c12 [Example 8, 4-(7-methoxy-1H-benzo[d][1,2,3]triazol-1-yl)phenyl)methanamine Hydrochloride]
IC50: > 10 µM

COc1cc(OC)c2nnn(-c3ccc(CN)cc3)c2c1 [Example 9, 4-(4,6-dimethoxy-1H-benzo[d][1,2,3]triazol-1-yl)phenyl)methanamine Hydrochloride]
IC50: 1 to 10 µM

COc1ccc2c(c1)nnn2-c1ccc(CNS(N)(=O)=O)cc1Cl [Example 59, N-(3-chloro-4-(5-methoxy-1H-benzo[d][1,2,3]triazol-1-yl)benzyl)sulfamide]
IC50: < 1 µM

COc1ccc2c(c1)nnn2CC1CCNCC1 [Example 3, 5-methoxy-1-(piperidin-4-ylmethyl)-1H-benzo[d][1,2,3]triazole]
IC50: 1 to 10 µM

COc1cc(OC)c2nnn(-c3ccc(CNS(N)(=O)=O)cc3)c2c1 [Example 54, N-(4-(4,6-dimethoxy-1H-benzo[d][1,2,3]triazol-1-yl)benzyl)sulfamide]
IC50: 1 to 10 µM

COc1cccc2c1nnn2-c1ccc(CNS(N)(=O)=O)cc1 [Example 50, N-(4-(4-methoxy-1H-benzo[d][1,2,3]triazol-1-yl)benzyl)sulfamide]
IC50: < 1 µM

COc1ccc2c(c1)nnn2-c1ccc(CNS(N)(=O)=O)c(F)c1 [Example 60, N-(2-fluoro-4-(5-methoxy-1H-benzo[d][1,2,3]triazol-1-yl)benzyl)sulfamide]
IC50: < 1 µM

COc1ccc2c(c1)nnn2-c1ccc(CNS(N)(=O)=O)cc1C [Example 66, N-(4-(5-methoxy-1H-benzo[d][1,2,3]triazol-1-yl)-3-methylbenzyl)sulfamide]
IC50: < 1 µM

NS(=O)(=O)NCc1cc(F)c(-n2nnc3ccccc32)c(F)c1 [Example 58, N-(4-(1H-benzo[d][1,2,3]triazol-1-yl)-3,5-difluorobenzyl)sulfamide]
IC50: < 1 µM

COc1ccc2c(c1)nnn2-c1ccc(P(=O)(O)O)cc1 [Example 118]
IC50: > 10 µM

COc1ccc2c(c1)nnn2C1CCN(S(N)(=O)=O)CC1 [Example 42, 4-(5-methoxy-1H-benzo[d][1,2,3]triazol-1-yl)piperidine-1-sulfonamide]
IC50: > 10 µM

COc1ccc2nnn(-c3ccc(CNS(N)(=O)=O)cc3)c2c1 [Example 52, N-(4-(6-methoxy-H-benzo[d][1,2,3]triazol-1-yl)benzyl)sulfamide]
IC50: < 1 µM

CC(C)Oc1ccc2c(c1)nnn2-c1ccc(CNS(N)(=O)=O)cc1F [Example 77, N-(3-fluoro-4-(5-isopropoxy-1H-benzo[d][1,2,3]triazol-1-yl)benzyl)sulfamide]
IC50: > 10 µM

COc1ccc2nnn(-c3ccc(CN)cc3)c2c1 [Example 7, 4-(6-methoxy-1H-benzo[d][1,2,3]triazol-1-yl)phenyl)methanamine Hydrochloride]
IC50: > 10 µM

COc1ccc2c(c1)nnn2-c1ccc(CNS(N)(=O)=O)cc1F [Example 61, N-(4-(5-methoxy-1H-benzo[d][1,2,3]triazol-1-yl)-3-fluorobenzyl)sulfamide]
IC50: < 1 µM

NS(=O)(=O)NCc1ccc(-n2nnc3ccccc32)cc1 [Example 46, N-(4-(1H-benzo[d][1,2,3]triazol-1-yl)benzyl)sulfamide]
IC50: 1 to 10 µM

COc1cccc2nnn(-c3ccc(CNS(N)(=O)=O)cc3)c12 [Example 53, N-(4-(7-methoxy-1H-benzo[d][1,2,3]triazol-1-yl)benzyl)sulfamide]
IC50: > 10 µM

COc1ccc2c(c1)nnn2-c1cc(F)c(CN)cc1F [Example 17]
IC50: > 10 µM

COc1ccc2c(c1)nnn2CC1CCN(S(N)(=O)=O)CC1 [Example 45, 4-((5-methoxy-1H-benzo[d][1,2,3]triazol-1-yl)methyl)piperidine-1-sulfonamide]
IC50: < 1 µM

CNCc1ccc(-n2nnc3cc(OC)ccc32)cc1 [Example 12, 1-(4-(5-methoxy-1H-benzo[d][1,2,3]triazol-1-yl)phenyl)-N-methylmethanamine Hydrochloride]
IC50: > 10 µM

COc1cc2nnn(-c3ccc(CNS(N)(=O)=O)cc3)c2cc1F [Example 92, N-(4-(6-fluoro-5-methoxy-1H-benzo[d][1,2,3]triazol-1-yl)benzyl)sulfamide]
IC50: < 1 µM

COc1ccc2c(c1)nnn2C1CCNCC1 [Example 1, 5-methoxy-1-(piperidin-4-yl)-1H-benzo[d][1,2,3]triazole Hydrochloride]
IC50: > 10 µM

COc1ccc2c(c1)nnn2Cc1ccc(CNS(N)(=O)=O)cc1 [Example 105, N-(4-((5-methoxy-1H-benzo[d][1,2,3]triazol-1-yl)methyl)benzyl)sulfamide Hydrochloride]
IC50: > 10 µM

COc1ccc2c(c1)nnn2-c1ccc(CNS(N)(=O)=O)cc1 [Example 51, N-(4-(5-methoxy-1H-benzo[d][1,2,3]triazol-1-yl)benzyl)sulfamide Hydrochloride]
IC50: < 1 µM

COc1ccc2nn(Cc3ccc(NS(N)(=O)=O)cc3)nc2c1 [Example 109, Hydrochloride]
IC50: 1 to 10 µM
